The text below walks through data of patent US20110319379A1, “Substituted Indazole Amides And Their Use As Glucokinase Activators” (priority 2009, published 2011).

The first test concerns the target T1, recombinant human glucokinase (beta cell isoform) (Homo sapiens, UniProt P35557).
T1 construct: Full-length glucokinase (beta cell isoform) was His-tagged at the N-terminus; His tag (N); made in house; host or cells: E. coli BL21(DE3), vector pBCGK
T1 sequence (P35557 1-465): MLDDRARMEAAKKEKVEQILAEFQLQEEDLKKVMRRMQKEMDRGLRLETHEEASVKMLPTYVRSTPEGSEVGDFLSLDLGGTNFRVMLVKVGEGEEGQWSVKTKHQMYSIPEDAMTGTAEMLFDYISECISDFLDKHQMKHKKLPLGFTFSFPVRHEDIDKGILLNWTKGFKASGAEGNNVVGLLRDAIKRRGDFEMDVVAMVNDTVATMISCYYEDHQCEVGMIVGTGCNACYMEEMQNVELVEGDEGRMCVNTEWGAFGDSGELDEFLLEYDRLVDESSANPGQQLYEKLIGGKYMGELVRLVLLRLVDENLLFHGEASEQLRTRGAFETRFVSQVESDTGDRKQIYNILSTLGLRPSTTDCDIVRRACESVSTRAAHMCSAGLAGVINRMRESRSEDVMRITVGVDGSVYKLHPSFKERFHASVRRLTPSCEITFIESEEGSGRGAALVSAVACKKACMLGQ
The test is described as follows: Assay 1: Evaluating Activator Potency and Maximum Activation at 5 mM Glucose. In kind it is biochemical.
Details: not given
Here is the method: Representative compounds of this invention were evaluated in biochemical assays (Assay 1 or Assay 2) to characterize their glucokinase activation properties.
The recombinant human glucokinase protein utilized in both assays was prepared and purified as described below.
BL21(DE3) cells (Invitrogen Corporation, Carlsbad, Calif.) containing pBCGK (C or N H is) vector were grown at 37° C. (in 2XYT) until the OD600 was between 0.6-1.0. Expression was induced by addition of isopropylthiogalactoside to a final concentration of 0.1-0.2 mM to the cells which were then incubated overnight at 23° C. The next day, cells were harvested via centrifugation at 5000 rpm for 15 minutes at 4° C. The cell pellet was stored at −80° C. for future purification.
Beta Cell Glucokinase His-Taq Purification Conditions: A Ni-NTA (Quigan, Germantown, Md.) column (15-50 mL) was used for separation. Two buffers were prepared, 1) a lysis/nickel equilibration and wash buffer and 2) a nickel elution buffer. The lysis/equilibration/wash buffer was prepared as such: 25 mM HEPES buffer at pH 7.5, 250 mM NaCl, 20 mM imidazole, and 14 mM β-mercaptoethanol as final concentrations. The elution buffer was prepared as such: 25 mM HEPES at pH 7.5, 250 mM NaCl, 400 mM imidazole, and 14 mM β-mercaptoethanol as final concentrations. The buffers were each filtered with a 0.22 μm filter prior to use. The cell pellet (1 L culture) was resuspended in 300 mL of the lysis/equilibration buffer. The cells were then lysed (3 times) with a Microfluidics Model 110Y microfluidizer (Microfluidics Corporation, Newton, Mass.). The slurry was centrifuged with a Beckman Coulter Model LE-80K ultracentrifuge (Beckman Coulter, Fullerton, Calif.) at 40,000 rpm for 45 minutes at 4° C. The supernatant was transferred to a chilled flask. A volume of 20 μl was saved for gel analysis. A Pharmacia AKTA (GMI, Inc., Ramsey, Minn.) purification system was used for separation. The prime lines were purged with lysis/equilibration buffer. The Ni-NTA column was equilibrated with 200 mL of the lysis/equilibration buffer at a flow rate of 5 mL/minute. The supernantant was loaded over the column at 4 mL/minute and the flow-through was collected in a flask. The unbound proteins were washed with lysis/equilibration buffer at a flow rate of 5 mL/minute until the ultraviolet reaches baseline. The protein was then eluted from the column with the imidazole elution buffer via imidazole gradient 20 mM to 400 mM over 320 mL. The column was then stripped of any additional protein with 80 mL of the elution buffer. The elution fractions were each 8 mL, for a total yield of 50 samples. Fractions were analyzed by sodium dodecyl sulfate polyacrylamide (SDS-PAGE) and the fractions containing protein of interest were pooled and concentrated to 10 mL using ultrafiltration cell with a 10,000 molecular weight cut-off (MWCO) Millipore membrane (Sigma-Aldrich, St. Louis, Mo.) under nitrogen gas (60 psi). Protein was further purified by size exclusion chromatography (SEC) using a […] (320 mL) (Amersham Pharmacia, Uppsala, Sweden). SEC was equilibrated with 450 mL sizing buffer containing 25 mM HEPES pH 7.0, 50 mM NaCl, and 5 mM dithiothreitol. Concentrated protein was then loaded over SEC and elution with 400 mL sizing buffer was performed overnight at 0.5 mL/minute. The elution fractions were 5 mL each. The fractions were analyzed by SDS-PAGE and protein containing fractions were pooled. Concentration was measured using Bradford Assay/BSA Standard. Purified protein was stored in small aliquots at −80° C.
Assay 1: Evaluating Activator Potency and Maximum Activation at 5 mM Glucose
Full-length glucokinase (beta cell isoform) was His-tagged at the N-terminus and purified by a Ni column followed by size exclusion chromatography as described above. Glucose was obtained from Calbiochem (San Diego, Calif.) and other reagents were purchased from Sigma-Aldrich (St. Louis, Mo.).
As to `Cc1cnc(NC(=O)c2cc(Oc3cnc(C(=O)N(C)C)c(F)c3)c3cn(C)nc3c2)cn1` [Example 1AC, 4-{[6-(dimethylcarbamoyl)-5-fluoropyridin-3-yl]oxy}-2-methyl-N-(5-methylpyrazin-2-yl)-2H-indazole-6-carboxamide], the EC50 amounted to 1.63 µM.

The same test, now with this note: Assay 1; 5 mM glucose; NADH depletion at 340 nm, PK/LDH coupled; read-out: Glucokinase EC50.
`Cn1ccc(NC(=O)c2cc(Oc3ccc(S(C)(=O)=O)cc3)c3cn(C)nc3c2)n1` [Example 1N, 2-methyl-N-(1-methyl-1H-pyrazol-3-yl)-4-[4-(methylsulfonyl)phenoxy]-2H-indazole-6-carboxamide]: the EC50 was 8.54 µM.

`CN(C)C(=O)c1ncc(Oc2cc(C(=O)Nc3ccc(Cl)cn3)cc3nn(C)cc23)cn1` [Example 1AA, N-(5-chloropyridin-2-yl)-4-(2-(dimethylcarbamoyl)pyrimidin-5-yloxy)-2-methyl-2H-indazole-6-carboxamide]: the EC50 was found to be 0.863 µM. With `CCn1cc2c(Oc3ccc(S(C)(=O)=O)cc3)cc(C(=O)Nc3ccc(C)cn3)cc2n1` [Example 1R, 2-ethyl-N-(5-methylpyridin-2-yl)-4-[4-(methylsulfonyl)phenoxy]-2H-indazole-6-carboxamide], the 50% effective concentration (EC50) was 1.41 µM.

Regarding `Cc1ccc(NC(=O)c2cc(Oc3cnc(C(=O)N4CCCC4)cn3)c3cn(C)nc3c2)nc1` [Example 1A, 2-methyl-N-(5-methylpyridin-2-yl)-4-(5-(pyrrolidine-1-carbonyl)pyrazin-2-yloxy)-2H-indazole-6-carboxamide], the concentration giving a half-maximal response (EC50) is 0.293 µM.

With `CCn1cc2c(Oc3ccc(S(=O)(=O)C4CC4)cc3)cc(C(=O)Nc3ccccn3)cc2n1` [Example 1X, 4-[4-(cyclopropylsulfonyl)phenoxy]-2-ethyl-N-pyridin-2-yl-2H-indazole-6-carboxamide], the EC50 amounted to 0.863 µM.

As to `Cn1cc2c(Oc3cnc(C(F)(F)F)cn3)cc(C(=O)Nc3cnn(C)n3)cc2n1` [Example 1K, 2-methyl-N-(2-methyl-2H-1,2,3-triazol-4-yl)-4-{[5-(trifluoromethyl)pyrazin-2-yl]oxy}-2H-indazole-6-carboxamide], the EC50 was 16.1 µM. As for `CCn1cc2c(Oc3cnc(C(=O)N(C)C)c(F)c3)cc(C(=O)Nc3cnc(C)cn3)cc2n1` [Example 1AE, 4-(6-(dimethylcarbamoyl)-5-fluoropyridin-3-yloxy)-2-ethyl-N-(5-methylpyrazin-2-yl)-2H-indazole-6-carboxamide], the 50% effective concentration (EC50) stood at 0.569 µM. Regarding `CN(C)C(=O)c1cnc(Oc2cc(C(=O)Nc3cnccn3)cc3nn(C)cc23)cn1` [Example 1E, 4-{[5-(dimethylcarbamoyl)pyrazin-2-yl]oxy}-2-methyl-N-pyrazin-2-yl-2H-indazole-6-carboxamide], the EC50 was 4.31 µM. Regarding `CCn1cc2c(Oc3cnc(C(=O)N(C)C)cn3)cc(C(=O)Nc3cnc(C)cn3)cc2n1` [Example 1P, 4-{[5-(dimethylcarbamoyl)pyrazin-2-yl]oxy}-2-ethyl-N-(5-methylpyrazin-2-yl)-2H-indazole-6-carboxamide], the EC50 was determined as 2.73 µM. In the case of `Cn1cc2c(Oc3ccc(S(=O)(=O)C4CC4)cc3)cc(C(=O)Nc3ccccn3)cc2n1` [Example 1V, 4-[4-(cyclopropylsulfonyl)phenoxy]-2-methyl-N-pyridin-2-yl-2H-indazole-6-carboxamide], the half-maximal effective concentration (EC50) was 1.5 µM. For `Cc1ccc(NC(=O)c2cc(Oc3ccc(C(=O)N4CCCC4)c(F)c3)c3cn(C)nc3c2)nc1` [Example 1C, 4-[3-fluoro-4-(pyrrolidin-1-ylcarbonyl)-phenoxy]-2-methyl-N-(5-methylpyridin-2-yl)-2H-indazole-6-carboxamide], the EC50 came out at 1.49 µM.

One may read the EC50 as the concentration at which the effect is half-maximal.
